Test results as given in publication PMC6273899 (Molecules, 2016).
≈ marks a conversion by molar mass, not a printed value. Where “and” joins values, the source holds several entries; their conditions need not be identical. Equal values may be shown once. Read-outs that look alike come from different tables or passages of the source. Square brackets hold non-standard residues; d marks the D form. Ends that are not written are not given here. Peptide text beside a SMILES is read from it.

Legend:
trypsin [1] = settings: 1 mg trypsin with 1 mg peptide in 1 mL PBS, MALDI-TOF/MS
Protocol: (§2) Two different media were used to appraise the stability and degradation sites of peptides, trypsin, and horse serum, respectively. For the trypsin assay, 1 mg of trypsin (Sigma-Aldrich) with 1 mg of peptide were incubated in 1 mL PBS for 72 h. Whilst for horse serum, the medium was prepared with 25% horse serum/RPMI medium (v/v) and incubated at 37 °C for 15 min. Peptide stock solution was added into the serum medium to obtain a solution having a final concentration of 1 mg/mL and test samples were kept at 37 °C for 72 h. At different time points, 20 μL samples were transferred into 100 μL of 0.25% (v/v) TFA/water which caused reaction termination. For the serum-digestion, samples were kept at 4 °C and centrifuged at 13,000 rpm for 15 min and the supernatants were then analysed by MALDI-TOF/MS.

[2] = system: Candida albicans (NCPF 1467); assay type: cell-based
Protocol: (§1) The antimicrobial activity was evaluated by minimal inhibitory concentration (MIC) and minimum bactericidal concentration (MBC) assays using broth microdilution methods and in vitro assays against reference strains of microorganisms; a Gram-positive bacterium, a Gram-negative bacterium, and a yeast, respectively, Staphylococcus aureus (NCTC 10788), Escherichia coli (NCTC 10418), and Candida albicans (NCPF 1467). Briefly, the reference strains were incubated in Muller-Hinton Broth (MHB) until logarithmic phase growth was achieved which was assessed by the optical density (OD) of the culture at 550 nm. The cultures were subjected to dilution to obtain 1 × 10^6 colony-forming units (cfu)/mL for bacteria or to 5 × 10^5 cfu/ml for the yeast. Serial peptide dilutions and cultures were loaded into a 96-well microtiter plate obtaining suspensions containing 1–512 mg/L tested peptides. After incubating at 37 °C for 24 h, MIC values were determined as the lowest concentration which produced a similar OD value to the negative control (medium only). Then 10 μL of inhibited culture from each well was subcultured on Muller-Hinton Agar (MHA) and incubated for 24 h. The MBC values were defined as the minimum concentration which effected no growth.

[3] = system: Staphylococcus aureus (NCTC 10788); assay type: cell-based
Protocol: as §1

[4] = system: Escherichia coli (NCTC 10418); assay type: cell-based
Protocol: as §1

[5] = 25% horse serum/RPMI medium (v/v), 1 mg/mL peptide, 37 °C up to 72 h, MALDI-TOF/MS
Protocol: as §2

[6] = system: defibrinated horse erythrocytes; assay: Haemolysis assay; assay type: cell-based; settings: 2% (v/v) horse erythrocytes in PBS, 1 to 512 mg/L peptide, 37 °C 120 min, OD 550 nm; 100% = 1% Triton X-100
Protocol: The haemolytic activity of peptides against defibrinated horse erythrocytes (TCS Biosciences Ltd., Botolph Claydon, Buckingham, UK) was determined by comparing the degree of lysis after incubating tested peptides with prewashed red cell suspensions for 2 h. A 2% suspension (v/v) was formed with prewashed defibrinated horse erythrocytes and sodium phosphate-buffered saline (PBS). Peptides were incubated with this 2% suspension in a final concentration range from 1 to 512 mg/L and all the samples were kept at a constant 37 °C for 120 min. Negative controls and positive controls were PBS alone and PBS containing Triton X-100 (Sigma-Aldrich, St. Louis, MO, USA), respectively. The sample supernatants were used to assess the extent of haemolysis by measuring the OD value at 550 nm.

trypsin [7] = assay: 1 mg of trypsin (Sigma-Aldrich) with 1 mg of peptide in 1 mL PBS; settings: up to 72 h
[8] = 25% horse serum/RPMI medium (v/v); settings: 37 °C, up to 72 h
[9] = 10 μL of inhibited culture subcultured on Muller-Hinton Agar, 24 h, minimum concentration with no growth
[10] = broth microdilution, Muller-Hinton Broth, 5 × 10^5 cfu/ml, 1–512 mg/L peptide, 37 °C 24 h, OD read-out, NCPF 1467
[11] = broth microdilution, Muller-Hinton Broth, 1 × 10^6 cfu/mL, 1–512 mg/L peptide, 37 °C 24 h, OD read-out, NCTC 10788
[12] = broth microdilution, Muller-Hinton Broth, 1 × 10^6 cfu/mL, 1–512 mg/L peptide, 37 °C 24 h, OD read-out, NCTC 10418

For `CC[C@H](C)[C@H](NC(=O)[C@H](C)NC(=O)[C@@H](CCCCN)NC(=O)[C@@H]1CCCN1C(=O)[C@@H](NC(=O)[C@H](CC(C)C)NC(=O)[C@H](CO)NC(=O)[C@H](CC(C)C)NC(=O)[C@@H](N)Cc1ccccc1)[C@@H](C)CC)C(=O)N[C@H](CCCCN)C(=O)N[C@@H](C)C(=O)N[C@H](C(=O)NCC(=O)N[C@H](C(=O)N[C@H](CCCCN)C(=O)N[C@@H](C)C(=O)N[C@H](CCCCN)C(=O)N[C@H](CCCCN)C(=O)N[C@@H](Cc1ccccc1)C(N)=O)C(C)C)C(C)C` [PS-PT2a] (H-FLSLIP[dK]AI[dK]AVGV[dK]A[dK][dK]F-NH2), the “Catabolites generated by incubation with trypsin (species detected, incl. intact 1–19)” value (trypsin [1]; up to 72 h) was 1–19 FLSLIPKAIKAVGVKAKKF, the “time stable in trypsin solution” value (trypsin [1]; up to 72 h) was at least 48 h and the “MBC C. albicans” value [2, 9] was 256 µg/mL (≈ 124 µM). For the same compound, the “MIC C. albicans” value [2, 10] was 256 µg/mL (≈ 124 µM), the “MBC S. aureus” value [3, 9] was over 512 µg/mL and the “MIC S. aureus” value [3, 11] was over 512 µg/mL. For the same compound, the “MBC E. coli” value [4, 9] was over 512 µg/mL, the “MIC E. coli” value [4, 12] was over 512 µg/mL and the “stability in serum (in words)” value ([5]; pre-incubated 37 °C 15 min) was “relatively stable after 72 h”.

In the case of `CC[C@H](C)[C@H](NC(=O)[C@H](C)NC(=O)[C@@H](CCCCN)NC(=O)[C@@H]1CCCN1C(=O)[C@@H](NC(=O)[C@H](CC(C)C)NC(=O)[C@H](CO)NC(=O)[C@H](CC(C)C)NC(=O)[C@@H](N)Cc1ccccc1)[C@@H](C)CC)C(=O)N[C@@H](CCCCN)C(=O)N[C@@H](C)C(=O)N[C@H](C(=O)NCC(=O)N[C@H](C(=O)N[C@@H](CCCCN)C(=O)N[C@@H](C)C(=O)N[C@@H](CCCCN)C(=O)N[C@@H](CCCCN)C(=O)N[C@@H](Cc1ccccc1)C(N)=O)C(C)C)C(C)C` [PS-PT2b] (H-FLSLIP[dK]AIKAVGVKAKKF-NH2), the “degradation by trypsin (in words)” value (trypsin [1]; up to 72 h) is reported as “hydrolytically-degraded after a 30 s incubation”, the “scissile site with trypsin” value (trypsin [1]) is reported as “Lys^10-Ala^11” and the “MBC C. albicans” value [2, 9] is reported as 64 µg/mL (≈ 31.1 µM). For the same compound, the “MIC C. albicans” value [2, 10] was 32 µg/mL (≈ 15.6 µM), the “MBC S. aureus” value [3, 9] was 512 µg/mL (≈ 249 µM) and the “MIC S. aureus” value [3, 11] was 256 µg/mL (≈ 124 µM). The “MBC E. coli” value [4, 9] was 256 µg/mL (≈ 124 µM), the “MIC E. coli” value [4, 12] was 256 µg/mL (≈ 124 µM) and the “Catabolites generated by incubation with serum (species detected, incl. intact 1–19)” value [5] was 1–17 […] and 1–19 FLSLIPKAIKAVGVKAKKF. For the same compound, the “incubation time in serum after which fragments 1–15, 1–14 and 1–17 were observed” value [5] was over 48 h and the “stability in serum (in words)” value ([5]; pre-incubated 37 °C 15 min) was “strong stability”.

For FLSLIPHAIKAVGVHAKHF-NH2 [PS-PT1], the “MBC C. albicans” value ([2]; NCPF 1467, 24 h) was 256 µg/mL, the “MIC C. albicans” value ([2]; NCPF 1467, 24 h) was 128 µg/mL and the “MBC S. aureus” value ([3]; NCTC 10788, 24 h) was 256 µg/mL. The “MIC S. aureus” value ([3]; NCTC 10788, 24 h) was 128 µg/mL, the “MBC E. coli” value ([4]; NCTC 10418, 24 h) was over 512 µg/mL and the “MIC E. coli” value ([4]; NCTC 10418, 24 h) was 512 µg/mL.

For FLSLIPHAINAVGVHAKHF-NH2 [PS-PT], the “MBC C. albicans” value ([2]; NCPF 1467, 24 h) was over 512 µg/mL, the “MIC C. albicans” value ([2]; NCPF 1467, 24 h) was 512 µg/mL and the “MBC S. aureus” value ([3]; NCTC 10788, 24 h) was over 512 µg/mL. For the same compound, the “MIC S. aureus” value ([3]; NCTC 10788, 24 h) was 512 µg/mL, the “MBC E. coli” value ([4]; NCTC 10418, 24 h) was over 512 µg/mL and the “MIC E. coli” value ([4]; NCTC 10418, 24 h) was over 512 µg/mL.

In the case of “FLSLIPKAIKAVGVKAKKF-NH2 [PS-PT2] [listing 1 of 2 here]”, the “time in which the original peptide was completely cleaved by trypsin” value (trypsin [1]; up to 72 h) is reported as at most 30 s, the “scissile site with trypsin” value (trypsin [1]) is reported as “Lys^7-Ala^8” and the “haemolytic effect (in words)” value [6] is reported as “negligible haemolytic effects”. For the same compound, the “MBC C. albicans” value [2, 9] was 32 µg/mL, the “MIC C. albicans” value [2, 10] was 16 µg/mL and the “MBC S. aureus” value [3, 9] was 64 µg/mL. For the same compound, the “MIC S. aureus” value [3, 11] was 64 µg/mL, the “MBC E. coli” value [4, 9] was over 512 µg/mL and the “MIC E. coli” value [4, 12] was 512 µg/mL. For the same compound, the “time after which peptide was completely degraded in serum” value ([5]; pre-incubated 37 °C 15 min) was at most 30 min.

With “FLSLIPKAIKAVGVKAKKF-NH2 [PS-PT2] [listing 2 of 2 here]” the cleaved bond (trypsin [7]) was “Lys7-Ala8, major, 30 s”, the fragment found (trypsin [7]) was 1–17 FLSLIPKAIKAVGVKAK, 4 min and the cleaved bond [8] was “Lys7-Ala8, major”. The fragment found [8] was 1–16 fragment (FLSLIPKAIKAVGVKA-), minor, 1 min.

With FLSLIPKAIKAVGVKAKKF-NH2 [PS-PT2a] the not cleaved (trypsin [7]) was “stable in trypsin solution for up to 48 h” and the fragment found [8] was 2–7 fragments (LSLIPK), minor, 4 h.

With FLSLIPKAIKAVGVKAKKF-NH2 [PS-PT2b] the cleaved bond (trypsin [7]) was “Lys10-Ala11, 30 s” and the fragment found [8] was 1–17 (FLSLIPKAIKAVGVKAK), >48 h.
